Experimental data taken from patent US20190151418A1, “COMBINATION OF CALCIUM-PHOSPHATE-CONTAINING POROUS COMPOSITE AND PTH” (TOYOBO CO., LTD., priority 2016, published 2019).

System: standardized full-thickness bone defect (diameter: about 9 mm) in the calvarium
Assay: Test Example 1: rat calvarium bone defect, OCP/Col or β-TCP/Col implant + teriparatide subcutaneous injection
Format: in vivo, Male Wistar rats
Description: Male Wistar rats (12 weeks old) were each intraperitoneally anesthetized, and a skin incision and a periosteal incision were made in the calvarium part to expose the calvarium. A standardized full-thickness bone defect (diameter: about 9 mm), for which spontaneous recovery could not be expected, was created. Then, one disc-shaped OCP/Col produced in Production Example 2 or one disc-shaped β-TCP/Col produced in Production Example 3 was implanted therein. As the control, rats in which only a bone defect was created, and no sample was implanted (untreated group) were prepared. After the sample was implanted, the periosteum and skin were sutured, and the surgery was completed. […] In the rats of the teriparatide subcutaneous injection group, 10 μg/kg of the teriparatide prepared in Production Example 5 was subcutaneously injected immediately after surgery and every day thereafter. Subcutaneous injection was performed in such a manner that the thawed teriparatide solution was sucked by a 1-mL syringe (27G injection needle), the back skin was sterilized with a dilute Hibitane solution, and then a considerable amount of teriparatide solution was injected subcutaneously in the back. The observation period after surgery was 8 weeks for each group, and 5 rats were used in each period.
Four weeks and eight weeks after surgery, tomography was carried out on the rats in the living state using an X-ray CT scanner for experimental animals (Latheta LCT-200, produced by Hitachi Aloka Medical, Ltd.) at a low X-ray tube voltage, and the state of new bone formation in the bone defect site was carefully examined. Similarly, after CT photography 8 weeks after surgery, the rats were euthanized under anesthesia with an excess amount of pentobarbital. The calvarium and surrounding tissue were taken, and immersed and fixed in 0.1 M phosphate-buffered 4% paraformaldehyde (pH 7.4). The extracted samples were photographed (20 kV, 5 mA) with a soft X-ray camera (CMBW-2, produced by Softex Co., Ltd.), and then decalcified with 10% EDTA to prepare paraffin samples. Then, tissue sections (thickness: 6 μm) cut in the frontal plane were prepared, and a histological search was performed by hematoxylin-eosin staining. Further, using the multiple tissue sections corresponding to the center of the defect of each sample, the ratio of new bone (n-Bone %) in the created defect was examined by histological quantification. Variance analysis, etc., were conducted using the average value and standard deviation of n-Bone % in each group, and a significance test was conducted. The significance level was set at 5%.

[1] = 8 weeks after surgery, hematoxylin-eosin, PTH(+) = teriparatide 10 μg/kg s.c. every day, PTH(−) = none

CC[C@H](C)[C@H](NC(=O)[C@H](CCC(=O)O)NC(=O)[C@H](CO)NC(=O)[C@@H](NC(=O)[C@@H](N)CO)C(C)C)C(=O)N[C@@H](CCC(N)=O)C(=O)N[C@@H](CC(C)C)C(=O)N[C@@H](CCSC)C(=O)N[C@@H](Cc1cnc[nH]1)C(=O)N[C@@H](CC(N)=O)C(=O)N[C@@H](CC(C)C)C(=O)NCC(=O)N[C@@H](CCCCN)C(=O)N[C@@H](Cc1cnc[nH]1)C(=O)N[C@@H](CC(C)C)C(=O)N[C@@H](CC(N)=O)C(=O)N[C@@H](CO)C(=O)N[C@@H](CCSC)C(=O)N[C@@H](CCC(=O)O)C(=O)N[C@@H](CCCN=C(N)N)C(=O)N[C@H](C(=O)N[C@@H](CCC(=O)O)C(=O)N[C@@H](Cc1c[nH]c2ccccc12)C(=O)N[C@@H](CC(C)C)C(=O)N[C@@H](CCCN=C(N)N)C(=O)N[C@@H](CCCCN)C(=O)N[C@@H](CCCCN)C(=O)N[C@@H](CC(C)C)C(=O)N[C@@H](CCC(N)=O)C(=O)N[C@@H](CC(=O)O)C(=O)N[C@H](C(=O)N[C@@H](Cc1cnc[nH]1)C(=O)N[C@@H](CC(N)=O)C(=O)N[C@@H](Cc1ccccc1)C(=O)O)C(C)C)C(C)C [teriparatide]
X-ray photographs of isolated bone defect sites (FIG. 1) (8 weeks after surgery, PTH(+) = teriparatide 10 μg/kg s.c. every day): radiopaque images in the defects were equally scarce
stained pathological specimens, high-magnification images (FIG. 4) [1]: thin new bone extended from the defect margins
stained pathological specimens, low-magnification (×1.25) images (FIG. 3) [1]: thin bone tissue extending from the defect margins (▾) and connective tissue surrounding the bone tissue
ratio of new bone (n-Bone %) in the defect (8 weeks after surgery, histological quantification (FIG. 5), PTH(+) = teriparatide 10 μg/kg subcutaneously every day, PTH(−) = no injection, average ± standard deviation): 31.1±10.2%
X-ray photographs (cross sections) of calvarium shot with the rats alive (FIG. 2) (PTH(+) = teriparatide 10 μg/kg s.c. every day): radiopaque images extending from the defect margins (∇) were observed; however, their thickness was less than that of the existing bone
new bone formation (conclusion from FIGS. 1 to 5) (teriparatide 10 μg/kg s.c. every day, 8 weeks): new bone formation was not observed
